Entries after “also recorded” stand apart in the source; their conditions may differ.
Tests used:
Assay type in all cases: cell-based
KRAS sumoylation = KRAS sumoylation in transfected MiaPaCa-2 cells (Flag immunoprecipitation, HA blot); details: MiaPaCa-2 cells transfected with Flag-KRAS and HA-SUMO3, treated 18 h (FIG. 2A)
Description: FIGS. 2A-2E. Lysine 42 is a primary site for sumoylation. (FIG. 2A) MiaPaCa-2 cells were transfected with Flag-KRAS and HA-SUMO3 expression constructs for 24 h and then treated with or without 2-D08 for 18 h. Cells were then lysed and equal amounts of the lysates were immunoprecipitated with the anti-Flag antibody. Flag precipitates, along with lysate inputs, were blotted with antibodies to HA and Flag, respectively. (FIG. 2B) HEK293T cells were co-transfected with plasmid constructs expressing Flag-KRAS, HA-SUMO3, and SENP isoforms as indicated. Equal amounts of protein lysates were immunoprecipitated with the anti-Flag antibody. Flag immunoprecipitates were immunoblotted with antibodies to Flag or HA. […]
Total cell lysates were prepared in a buffer [50 mM Tris-HCl (pH 7.5), 150 mM NaCl, 1% IGEPAL, 0.1% SDS, and 0.5% sodium deoxycholate] supplemented with a mixture of protease and phosphatase inhibitors. […] Protein concentrations were measured using the bicinchoninic acid protein assay reagent kit (Pierce Chemical Co). […]
HEK-293T cells were lysed in TBSN buffer [20 mM Tris-Cl (pH 8.0), 150 mM NaCl, 0.5% NP-40, 5 mM EGTA, 1.5 mM EDTA, 0.5 mM Na3VO4, and […]-Glycerol phosphate]. […] After incubation, proteins bound to each resin were washed extensively with the binding buffer, eluted in the SDS-PAGE sample buffer, and analyzed by SDSPAGE.

MiaPaCa-2 cells = test: Wound-healing assay, MiaPaCa-2 cells; details: MiaPaCa-2 cells (KRASV12), various concentrations, 18 h (FIG. 7B, 7D)
Description: (§1) FIGS. 7A-7E. SUMO inhibitor blocks migration of pancreatic cancer cells with KRASV12 mutation. (FIG. 7A) MiaPaCa-2 cells transfected with various KRAS expression constructs or the vector as indicated for 24 h. A GFP-expressing plasmid was used for co-transfection. Transfected cells were then used for wound-healing assays as described in Methods. Representative images of the assay and GFP expression are shown. (FIG. 7B) Both BxPC-3 and MiaPaCa-2 cells were employed for wound-healing assays. Cells with open scratches were treated with various concentrations of 2-D08 for 18 h. Representative images of cells before and after recovery in the presence of 2-D08 for 18 h are shown. (FIG. 7C & FIG. 7D) Data were summarized from experiments as shown in A and B, respectively. (FIG. 7E) MiaPaCa-2 cells treated with or without 2-D08 were lysed and equal amounts of cell lysates were blotted with antibodies to N-Cadherin, ZEB1/TCF8, ZO-1, PARP-1 and B-actin, respectively.
(§2) RAS proteins were the first, and remain the best-studied, oncoproteins. However, to date no compounds that target RAS have been approved for clinic applications for cancer treatment. As a proof-of-principle study, we next determined whether 2-D08 that blocks RAS sumoylation (FIG. 2A) would suppress tumor cell migration in a KRAS-dependent manner. […]

BxPC-3 cells = test: Wound-healing assay, BxPC-3 cells; details: BxPC-3 cells that harbor no KRAS mutation, various concentrations, 18 h (FIG. 7B, 7D)
Description: as §1, §2

[1] = system: ZEB1/TCF8, ZO-1 expression in MiaPaCa-2 cells; test: Immunoblot of migration/EMT gene products in MiaPaCa-2 cells
Description: as §1
RAS proteins were the first, and remain the best-studied, oncoproteins. However, to date no compounds that target RAS have been approved for clinic applications for cancer treatment. As a proof-of-principle study, we next determined whether 2-D08 that blocks RAS sumoylation (FIG. 2A) would suppress tumor cell migration in a KRAS-dependent manner.
Total cell lysates were prepared in a buffer [50 mM Tris-HCl (pH 7.5), 150 mM NaCl, 1% IGEPAL, 0.1% SDS, and 0.5% sodium deoxycholate] supplemented with a mixture of protease and phosphatase inhibitors. HEK293T Tet-on cells were engineered to express KRASV12 or KRASV12/42R mutants in the presence of doxycycline. At various times post addition of doxycycline, cells were collected and lysed in the same buffer as above. Protein concentrations were measured using the bicinchoninic acid protein assay reagent kit (Pierce Chemical Co). Equal amounts of protein lysates from various samples were used for SDS-PAGE analysis followed by immunoblotting. […]

[2] = MiaPaCa-2 cells, immunoblot (FIG. 7E)

`O=c1cc(-c2ccc(O)c(O)c2O)oc2ccccc12` [2-D08, 2-(2,3,4-Trihydroxyphenyl)-4H-chromen-4-one] was tested, and the KRAS sumoylation (KRAS sumoylation) was “blocked KRAS sumoylation in a concentration-dependent manner”, the “cell migration (wound healing)” value (MiaPaCa-2 cells) was “blocked MiaPaCa-2 cell migration in a concentration-dependent manner; also recorded: reduces migration rate of pancreatic cancer cells with KRASV12 in a concentration-dependent manner” and the “cell migration (wound healing)” value (BxPC-3 cells) was “did not have an effect on inhibiting cell migration”. For the same compound, the “expression of ZEB1/TCF8” value [1, 2] was “suppressed expression of ZEB1/TCF8”, the “expression of ZO-1” value [1, 2] was “promoted expression of ZO-1” and the “expression of genes involved in EMT” value ([1]; pancreatic cancer cells with KRASV12 (FIG. 7)) was “suppresses expression of genes involved in EMT”.

From patent US20170291958A1, “Compositions and Methods For the Modulation of Ras Proteins” (NEW YORK UNIVERSITY, priority 2016, published 2017)
